Reference: PMC9126592, “sp^2-Iminosugars targeting human lysosomal β-hexosaminidase as pharmacological chaperone candidates for late-onset Tay-Sachs disease” (Journal of Enzyme Inhibition and Medicinal Chemistry, 2022)

Legend:
[1] = biological target: T1, recombinant human O-GlcNAcase (hOGA) (Homo sapiens, UniProt O60502); assay: Inhibition of recombinant human O-GlcNAcase (resorufin N-acetyl-β-D-glucosaminide); assay type: biochemical; details: for Ki: recombinant human O-GlcNAcase, read-out: Ki OGA
T1 construct: the N-terminal region of hOGA, comprising amino acids 11–396; the C-terminal region, comprising amino acids 535–715; His6 (N); His6 followed by 3C-protease cleavage site (N); made in house; host or cells: E. coli Bl21(DE3)-Gold
T1 sequence (O60502 11-396): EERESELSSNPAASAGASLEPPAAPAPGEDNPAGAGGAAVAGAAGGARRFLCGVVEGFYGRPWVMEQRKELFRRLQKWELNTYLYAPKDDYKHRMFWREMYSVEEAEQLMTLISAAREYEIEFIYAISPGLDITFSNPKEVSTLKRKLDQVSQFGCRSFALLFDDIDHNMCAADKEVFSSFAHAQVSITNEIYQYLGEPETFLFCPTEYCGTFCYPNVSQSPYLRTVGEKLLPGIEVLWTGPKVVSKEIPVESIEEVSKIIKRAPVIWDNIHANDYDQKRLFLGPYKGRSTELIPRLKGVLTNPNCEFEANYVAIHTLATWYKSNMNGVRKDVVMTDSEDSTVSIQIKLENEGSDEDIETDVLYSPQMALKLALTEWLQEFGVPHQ
T1 sequence (O60502 535-715): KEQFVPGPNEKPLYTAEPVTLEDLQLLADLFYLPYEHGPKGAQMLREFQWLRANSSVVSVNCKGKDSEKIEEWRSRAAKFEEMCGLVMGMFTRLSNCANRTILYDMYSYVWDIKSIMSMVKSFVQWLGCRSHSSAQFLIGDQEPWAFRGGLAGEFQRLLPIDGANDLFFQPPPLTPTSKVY
Text: The gene of the longest isoform of hOGA (hOGA-L; Uniprot Accession number: O60502) was synthesised in a codon-optimised form for recombinant expression in Escherichia coli. The successful expression construct encoded the N-terminal region of hOGA, comprising amino acids 11–396, and the C-terminal region, comprising amino acids 535–715. The N-terminal construct was cloned in the vector pACYC-Duet (Millipore) using the sequence and ligation-independent cloning method in frame with an N-terminal His6 tag. The C-terminal construct was cloned into the vector pET-YSBLIC3C27 with an N-terminal His6 tag followed by a 3 C-protease cleavage site using the same method. The nucleotide sequences of all made constructs were confirmed by sequencing. Both vectors were simultaneously transformed into E. coli Bl21(DE3)-Gold (Agilent) for subsequent protein expression. Cells were grown in 2 L TB-medium to an OD600 of ∼1.0 and protein synthesis was then induced by adding IPTG to a final concentration of 0.1 mM. Protein expression was carried out at 16 °C with an induction time of 20 h. The cells were harvested by centrifugation at 4,500 × g for 20 min, flash frozen and stored at −20 °C until required. For purification of the hOGA complex, cells were resuspended in 50 mM HEPES pH 7.0, 750 mM NaCl, 20 mM imidazole, and 0.5 mM DTT (resuspension buffer). Cells were lysed using a French Press at 25 kPsi. The lysate was cleared by centrifugation at 50,000 g for 1 h, and the supernatant was passed through a 10 ml HisTrap FF column (GE Healthcare) pre-equilibrated with resuspension buffer. The bound hOGA was purified by gradient elution over 10 column volumes using 0% to 50% of elution buffer (50 mM HEPES pH 7.0, 750 mM NaCl, 500 mM imidazole and 0.5 mM DTT). hOGA-containing fractions were combined, concentrated by ultrafiltration using Vivaspin columns (Sartorius) with a molecular weight cut-off (MWCO) of 30 kDa, and applied to a Superdex S200 column (GE Healthcare) pre-equilibrated with size-exclusion buffer (10 mM HEPES pH 7.0, 250 mM NaCl, 1 mM DTT). Fractions corresponding to the dimeric form of hOGA were combined and concentrated to 20 mg/mL by ultrafiltration with a Vivaspin (MWCO: 30 kDa) column, flash frozen using liquid nitrogen, and stored at −80 °C until required.
Inhibition assays were run at 0.2 nM [hOGA] in the same buffer, in the presence or absence of various concentrations of inhibitors and at a fixed substrate concentration of 25 µM and 1% DMSO. First, inhibitor was serially diluted to the desired range of concentrations in 2% DMSO buffer. Next, 50 µL of inhibitor solutions at various concentrations in 2% DMSO Buffer was added to 50 μl of 0.8 nM enzyme and allowed to incubate at 25 °C for 5 min. 100 µL of 50 µM and 1% DMSO substrate was then added and reaction mixture was immediately mixed and aliquoted in 45 µL triplicates to a CORNING 384 well black plate. Fluorescence signal was measured continuously for 20 min at 37 °C in a BioTek Neo 2 Plate reader set at excitation and emission wavelengths of 572 and 610 nm, respectively. Max reaction rates for all inhibitor concentrations were calculated within Gen5 BioTek reader software. % Activity was subsequently calculated for each inhibitor concentration against the max reaction rate of uninhibited hOGA.

[2] = biological target: β-hexosaminidase from Jack bean; assay: Commercial enzyme inhibition assay, β-hexosaminidase from Jack bean; assay type: biochemical; details: mean ± SD (n = 3); competitive
Description: Inhibition constant (Ki) values were determined by spectrophotometrically measuring the residual hydrolytic activities of the glycosidases against the respective o- (for β-galactosidase from E. coli) or p-nitrophenyl α- or β-D-glycopyranoside (for other glycosidases) in the presence of the iminosugars. Each assay was performed in phosphate buffer or phosphate-citrate buffer (for α- or β-mannosidase, amyloglucosidase or β-N-acetylglucosaminidase) at the optimal pH for the enzymes. The reactions were initiated by addition of the enzyme to a solution of the substrate in the absence or presence of various inhibitor concentrations. The mixture was incubated for 10–30 min at 37 °C or 55 °C (for amyloglucosidase) and the reaction was quenched by addition of 1 m Na2CO3. Reaction times were appropriate to obtain 10%–20% conversion of the substrate in order to achieve linear rates. The absorbance of the resulting mixture was determined at 405 nm. Approximate values of Ki were determined using a fixed concentration of substrate (around the KM value for the different glycosidases) and various inhibitor concentrations. Full Ki determinations and the enzyme inhibition mode were determined from the slope of Lineweaver-Burk plots and double reciprocal analysis.

SMILES	Ki [1] [µM]	Ki [2] [µM]	IC50 ([1]; read-out: IC50 against OGA) [µM]
CCCCNC(=S)N1C[C@H](NC(C)=O)[C@@H](O)[C@@H](O)[C@H]1CO [Compound 1, 2-Acetamido-1,2-dideoxy-5-N-(N’-butylthiocarbamoyl)galactonojirimycin]	> 100	3 ± 0.1	
CCCCCCCCNC(=S)N1C[C@H](NC(C)=O)[C@@H](O)[C@@H](O)[C@H]1CO [Compound 2, 2-Acetamido-1,2-dideoxy-5-N-(N’-octylthiocarbamoyl)galactonojirimycin]	> 100	7.2 ± 0.2	
CC(=O)N[C@H]1CN(C(=S)NCc2ccccc2)[C@H](CO)[C@H](O)[C@@H]1O [Compound 3, 2-Acetamido-1,2-dideoxy-5-N-(N’-benzylthiocarbamoyl)galactonojirimycin]	> 100	5.1 ± 0.2	
CC(=O)N[C@H]1CN(C(=S)Nc2ccccc2)[C@H](CO)[C@H](O)[C@@H]1O [Compound 4, 2-Acetamido-1,2-dideoxy-5-N-(N’-phenylthiocarbamoyl)galactonojirimycin]	> 100	0.065	
CCCCN=C1SCC2C(O)C(O)C(NC(C)=O)CN12 (stereo not drawn) [Compound 5, 2-Acetamido-1,2-dideoxy-5-N,6-S-(N’-butyliminomethylidene)-6-thiogalactonojirimycin]	> 100	0.14 ± 0.01	
CCCCCCCCN=C1SCC2C(O)C(O)C(NC(C)=O)CN12 (stereo not drawn) [Compound 6, 2-Acetamido-1,2-dideoxy-5-N,6-S-(N’-octyliminomethylidene)-6-thiogalactonojirimycin]	> 100	0.048 ± 0.002	
CC(=O)NC1CN2C(=NCc3ccccc3)SCC2C(O)C1O (stereo not drawn) [Compound 7, 2-Acetamido-1,2-dideoxy-5-N,6-S-(N’-benzyliminomethylidene)-6-thiogalactonojirimycin]	25	0.088 ± 0.003	25
CC(=O)NC1CN2C(=Nc3ccccc3)SCC2C(O)C1O (stereo not drawn) [Compound 8, 2-Acetamido-1,2-dideoxy-5-N,6-S-(N’-phenyliminomethylidene)-6-thiogalactonojirimycin]	> 100	0.13 ± 0.01	
